Measurements published in US20250145587A1, “BROMODOMAIN INHIBITORS” (AbbVie Inc., priority 2016, published 2025).
pKi: −log10 of the molar value.

Target: BRD4 (BDI_K57-E168) (Homo sapiens, UniProt O60885)
Test: TR-FRET bromodomain binding assay, BRD4 first bromodomain (BDI)
Description: A time-resolved fluorescence resonance energy transfer (TR-FRET) assay was used to determine the affinities of compounds of the Examples listed in Table 1 for each bromodomain of BRD4. […] An Alexa647-labeled BET-inhibitor was used as the fluorescent probe in the assay.
(§1) Compound dilution series were prepared in DMSO via an approximately 3-fold serial dilution. Compound dilutions were added directly into white, low-volume assay plates (Perkin Elmer Proxiplate 384 Plus #6008280) using a Labcyte Echo in conjunction with Labcyte Access and Thermo Multidrop CombinL robotics. Compounds were then suspended in eight microliters (μL) of assay buffer (20 mM Sodium Phosphate, pH 6.0, 50 mM NaCl, 1 mM Ethylenediaminetetraacetic acid disodium salt dihydrate, 0.01% Triton X-100, 1 mM DL-Dithiothreitol) containing His-tagged bromodomain, Europium-conjugated anti-His antibody (Invitrogen PV5596) and Alexa-647-conjugated probe.
After a one-hour equilibration at room temperature, TR-FRET ratios were determined using an Envision multilabel plate reader (Ex 340, Em 495/520).
TR-FRET data were normalized to the means of 24 no-compound controls (“high”) and 8 controls containing 1 μM un-labeled probe (“low”). Percent inhibition was plotted as a function of compound concentration and the data were fit with the 4 parameter logistic equation to obtain IC50s. Inhibition constants (Ki) were calculated from the IC50s, probe Kd and probe concentration.
Compound dilution series for Compounds A-E were prepared in DMSO via an approximately 3-fold serial dilution from 0.47 mM to 7.8 nM.
as §1, with “Compound” for “Compound dilution series were prepared in DMSO via an approximately 3-fold serial dilution. Compound”
The final concentration of 1× assay mixture contained 2% DMSO, 8 nM His-tagged bromodomain, 1 nM Europium-conjugated anti-His-tag antibody and 100 nM or 30 nM probe (for BDI or BDII, respectively) and compound concentration in the range of […]-150 μM.
TR-FRET data were normalized to the means of 24 no-compound controls (“high”) and 8 controls containing 1 μM un-labeled probe (“low”). Percent inhibition was plotted as a function of compound concentration and the data were fit with the 4 parameter logistic equation to obtain IC50s. Inhibition constants (Ki) were calculated from the IC50s, probe Kd and probe concentration. Typical Z′ values were between 0.65 and 0.75. The minimum significant ratio was determined to evaluate assay reproducibility (Eastwood et al., (2006) J Biomol Screen, 11: 253-261). The MSR was determined to be 2.03 for BDI and 1.93 for BDII, and a moving MSR (last six run MSR overtime) for both BDI and BDII was typically <3.

| pKi | SMILES |
| --- | --- |
| 6.11 | CCS(=O)(=O)c1ccc(Oc2c(C)cccc2C)c(-c2cn(C)c(=O)cc2O[C@H]2CC[C@H](NC(=O)C3CC3)CC2)c1 [Example 11, N-[trans-4-({5-[2-(2,6-dimethylphenoxy)-5-(ethanesulfonyl)phenyl]-1-methyl-2-oxo-1,2-dihydropyridin-4-yl}oxy)cyclohexyl]cyclopropanecarboxamide] |
| 5.94 | CCS(=O)(=O)c1ccc(Oc2c(C)cccc2C)c(-c2cn(C)c(=O)cc2O[C@H]2CC[C@H](NC(C)=O)CC2)c1 [Example 1, N-[trans-4-({5-[2-(2,6-dimethylphenoxy)-5-(ethanesulfonyl)phenyl]-1-methyl-2-oxo-1,2-dihydropyridin-4-yl}oxy)cyclohexyl]acetamide] |
| 6.99 | CCS(=O)(=O)Nc1ccc(Oc2c(C)cc(C(C)(C)O)cc2C)c(-c2cn(C)c(=O)cc2O[C@H]2CC[C@H](NC(=O)OC)CC2)c1 [Example 15, methyl {trans-4-[(5-{5-[(ethanesulfonyl)amino]-2-[4-(2-hydroxypropan-2-yl)-2,6-dimethylphenoxy]phenyl}-1-methyl-2-oxo-1,2-dihydropyridin-4-yl)oxy]cyclohexyl}carbamate] |
| 6.50 | CCS(=O)(=O)Nc1ccc(Oc2c(C)cc(F)cc2C)c(-c2cn(C)c(=O)cc2O[C@H]2CC[C@H](NC(=O)OC)CC2)c1 [Example 16, methyl {trans-4-[(5-{5-[(ethanesulfonyl)amino]-2-(4-fluoro-2,6-dimethylphenoxy)phenyl}-1-methyl-2-oxo-1,2-dihydropyridin-4-yl)oxy]cyclohexyl}carbamate] |
| 6.34 | CCS(=O)(=O)c1ccc(Oc2c(C)cc(F)cc2C)c(-c2cn(C)c(=O)cc2O[C@H]2CC[C@H](N(C)C(C)=O)CC2)c1 [Example 20, N-[trans-4-({5-[5-(ethanesulfonyl)-2-(4-fluoro-2,6-dimethylphenoxy)phenyl]-1-methyl-2-oxo-1,2-dihydropyridin-4-yl}oxy)cyclohexyl]-N-methylacetamide] |
| 5.98 | CCS(=O)(=O)c1ccc(Oc2c(C)cccc2C)c(-c2cn(C)c(=O)cc2O[C@H]2CC[C@H](NC(=O)OC)CC2)c1 [Example 3, methyl [trans-4-({5-[2-(2,6-dimethylphenoxy)-5-(ethanesulfonyl)phenyl]-1-methyl-2-oxo-1,2-dihydropyridin-4-yl}oxy)cyclohexyl]carbamate] |
| 6.21 | CCS(=O)(=O)c1ccc(Oc2c(C)cc(F)cc2C)c(-c2cn(C)c(=O)cc2O[C@H]2CC[C@H](N3CCCC3=O)CC2)c1 [Example 19, 5-[5-(ethanesulfonyl)-2-(4-fluoro-2,6-dimethylphenoxy)phenyl]-1-methyl-4-{[trans-4-(2-oxopyrrolidin-1-yl)cyclohexyl]oxy}pyridin-2(1H)-one] |
| 5.98 | CCS(=O)(=O)c1ccc(Oc2c(C)cccc2C)c(-c2cn(C)c(=O)cc2O[C@H]2CC[C@H](NS(C)(=O)=O)CC2)c1 [Example 4, N-[trans-4-({5-[2-(2,6-dimethylphenoxy)-5-(ethanesulfonyl)phenyl]-1-methyl-2-oxo-1,2-dihydropyridin-4-yl}oxy)cyclohexyl]methanesulfonamide] |
| 6.38 | CCS(=O)(=O)Nc1cnc(Oc2c(C)cc(F)cc2C)c(-c2cn(C)c(=O)cc2O[C@H]2CC[C@H](NC(=O)OC)CC2)c1 [Example 17, methyl [trans-4-({5′-[(ethanesulfonyl)amino]-2′-(4-fluoro-2,6-dimethylphenoxy)-1-methyl-6-oxo[1,6-dihydro[3,3′-bipyridine]]-4-yl}oxy)cyclohexyl]carbamate] |
| 6.34 | CCS(=O)(=O)c1ccc(Oc2c(C)cccc2C)c(-c2cn(C)c(=O)cc2O[C@H]2CC[C@H](NC(=O)C3CC(F)(F)C3)CC2)c1 [Example 13, N-[trans-4-({5-[2-(2,6-dimethylphenoxy)-5-(ethanesulfonyl)phenyl]-1-methyl-2-oxo-1,2-dihydropyridin-4-yl}oxy)cyclohexyl]-3,3-difluorocyclobutane-1-carboxamide] |
| 5.55 | CCS(=O)(=O)c1ccc(Oc2c(C)cccc2C)c(-c2cn(C)c(=O)cc2O[C@H]2CC[C@@H](NC(C)=O)CC2)c1 [Example 2, N-[cis-4-({5-[2-(2,6-dimethylphenoxy)-5-(ethanesulfonyl)phenyl]-1-methyl-2-oxo-1,2-dihydropyridin-4-yl}oxy)cyclohexyl]acetamide] |
| 6.31 | CCC(=O)N[C@H]1CC[C@H](Oc2cc(=O)n(C)cc2-c2cc(S(=O)(=O)CC)ccc2Oc2c(C)cccc2C)CC1 [Example 7, N-[trans-4-({5-[2-(2,6-dimethylphenoxy)-5-(ethanesulfonyl)phenyl]-1-methyl-2-oxo-1,2-dihydropyridin-4-yl}oxy)cyclohexyl]propanamide] |
| 5.89 | CCS(=O)(=O)c1ccc(Oc2c(C)cccc2C)c(-c2cn(C)c(=O)cc2O[C@H]2CC[C@H](NC(=O)OC(C)(C)C)CC2)c1 [Example 5, tert-butyl [trans-4-({5-[2-(2,6-dimethylphenoxy)-5-(ethanesulfonyl)phenyl]-1-methyl-2-oxo-1,2-dihydropyridin-4-yl}oxy)cyclohexyl]carbamate] |
| 7.02 | CCS(=O)(=O)Nc1ccc(Oc2c(C)cc(C(C)(C)O)cc2C)c(-c2cn(C)c(=O)cc2O[C@H]2CC[C@H](NC(C)=O)CC2)c1 [Example 14, N-{trans-4-[(5-{5-[(ethanesulfonyl)amino]-2-[4-(2-hydroxypropan-2-yl)-2,6-dimethylphenoxy]phenyl}-1-methyl-2-oxo-1,2-dihydropyridin-4-yl)oxy]cyclohexyl}acetamide] |
| 6.32 | CCS(=O)(=O)c1ccc(Oc2c(C)cccc2C)c(-c2cn(C)c(=O)cc2O[C@H]2CC[C@H](NC(=O)COC)CC2)c1 [Example 9, N-[trans-4-({5-[2-(2,6-dimethylphenoxy)-5-(ethanesulfonyl)phenyl]-1-methyl-2-oxo-1,2-dihydropyridin-4-yl}oxy)cyclohexyl]-2-methoxyacetamide] |
| 6.52 | CCS(=O)(=O)c1ccc(Oc2c(C)cccc2C)c(-c2cn(C)c(=O)cc2O[C@H]2CC[C@H](NC(=O)C3(C)COC3)CC2)c1 [Example 12, N-[trans-4-({5-[2-(2,6-dimethylphenoxy)-5-(ethanesulfonyl)phenyl]-1-methyl-2-oxo-1,2-dihydropyridin-4-yl}oxy)cyclohexyl]-3-methyloxetane-3-carboxamide] |
| 6.28 | CCS(=O)(=O)c1ccc(Oc2c(C)cccc2C)c(-c2cn(C)c(=O)cc2O[C@H]2CC[C@H](NC(=O)C3(C)CC3)CC2)c1 [Example 10, N-[trans-4-({5-[2-(2,6-dimethylphenoxy)-5-(ethanesulfonyl)phenyl]-1-methyl-2-oxo-1,2-dihydropyridin-4-yl}oxy)cyclohexyl]-1-methylcyclopropane-1-carboxamide] |
| 6.20 | CCS(=O)(=O)c1ccc(Oc2c(C)cccc2C)c(-c2cn(C)c(=O)cc2O[C@H]2CC[C@H](NC(=O)C(C)(C)C)CC2)c1 [Example 8, N-[trans-4-({5-[2-(2,6-dimethylphenoxy)-5-(ethanesulfonyl)phenyl]-1-methyl-2-oxo-1,2-dihydropyridin-4-yl}oxy)cyclohexyl]-2,2-dimethylpropanamide] |
| 6.08 | CCS(=O)(=O)c1ccc(Oc2c(C)cccc2C)c(-c2cn(C)c(=O)cc2O[C@H]2CC[C@H](NC(=O)C(F)(F)F)CC2)c1 [Example 6, N-[trans-4-({5-[2-(2,6-dimethylphenoxy)-5-(ethanesulfonyl)phenyl]-1-methyl-2-oxo-1,2-dihydropyridin-4-yl}oxy)cyclohexyl]-2,2,2-trifluoroacetamide] |
| 6.04 | COC(=O)N[C@H]1CC[C@H](Oc2cc(=O)n(C)cc2-c2cc(CS(C)(=O)=O)ccc2Oc2c(C)cc(F)cc2C)CC1 [Example 18, methyl {trans-4-[(5-{2-(4-fluoro-2,6-dimethylphenoxy)-5-[(methanesulfonyl)methyl]phenyl}-1-methyl-2-oxo-1,2-dihydropyridin-4-yl)oxy]cyclohexyl}carbamate] |
